According to the supplement of paper PMC4862054:

What was measured:
Conditions in all cases: incubation time: 72 h
[1] = test system: BT-474; assay: normalised response (% of control), CellTiter-Glo; higher = more viable cells (100 = DMSO, 0 = benzethonium chloride kill control)
Outline: (§1)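 In 384-well plates holding compound at 5 concentrations in 10-fold steps over a 10,000-fold range specific to each compound, breast cancer cell lines were seeded as 20 µl suspension and incubated 72 h. CellTox Green fluorescence was measured at 485/520 nm, after which CellTiter-Glo luminescence was measured following 10 min at room temperature. Plate signals were normalised to 0.1 % DMSO (100) and a positive kill control (0), and each value is the normalised signal at a single concentration.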

[2] = test system: BT-549; assay: as above
Outline: as §1

[3] = test system: CAL-120; assay: as above
Outline: as §1

[4] = test system: CAL-148; assay: as above
Outline: as §1

[5] = test system: CAL-51; assay: as above
Outline: as §1

[6] = test system: CAL-85-1; assay: as above
Outline: as §1

[7] = test system: DU-4475; assay: as above
Outline: as §1

[8] = test system: HCC1143; assay: as above
Outline: as §1

[9] = test system: HCC1599; assay: as above
Outline: as §1

[10] = test system: HCC1937; assay: as above
Outline: as §1

[11] = test system: HDQ-P1; assay: as above
Outline: as §1

[12] = test system: Hs578T; assay: as above
Outline: as §1

[13] = test system: MCF-10A; assay: as above
Outline: as §1

[14] = test system: MDA-MB-231; assay: as above
Outline: as §1

[15] = test system: MDA-MB-436; assay: as above
Outline: as §1

[16] = test system: MDA-MB-453; assay: as above
Outline: as §1

[17] = test system: MDA-MB-468; assay: as above
Outline: as §1

[18] = test system: MFM-223; assay: as above
Outline: as §1

[19] = test system: SK-BR-3; assay: as above
Outline: as §1

[20] = test system: BT-474; assay: normalised viability (% of control), CellTiter-Blue; higher = more viable cells (100 = DMSO, 0 = benzethonium chloride kill control)
Description: (§2)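 DSRT, CellTiter-Blue viability, 72 h incubation. Signal is normalised to DMSO and benzethonium chloride controls. Value is the normalised response at dose 1.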

[21] = test system: BT-549; assay: as above
Description: as §2

[22] = test system: CAL-120; assay: as above
Description: as §2

[23] = test system: CAL-148; assay: as above
Description: as §2

[24] = test system: CAL-51; assay: as above
Description: as §2

[25] = test system: CAL-85-1; assay: as above
Description: as §2

[26] = test system: DU-4475; assay: as above
Description: as §2

[27] = test system: HCC1143; assay: as above
Description: as §2

[28] = test system: HCC1599; assay: as above
Description: as §2

[29] = test system: HCC1937; assay: as above
Description: as §2

[30] = test system: HDQ-P1; assay: as above
Description: as §2

[31] = test system: Hs578T; assay: as above
Description: as §2

[32] = test system: MDA-MB-231; assay: as above
Description: as §2

[33] = test system: MDA-MB-436; assay: as above
Description: as §2

[34] = test system: MDA-MB-453; assay: as above
Description: as §2

[35] = test system: MDA-MB-468; assay: as above
Description: as §2

[36] = test system: MFM-223; assay: as above
Description: as §2

[37] = test system: SK-BR-3; assay: as above
Description: as §2

Row | Structure (SMILES) | normalised response [1] [%] | normalised response [2] [%] | normalised response [3] [%] | normalised response [4] [%] | normalised response [5] [%] | normalised response [6] [%] | normalised response [7] [%] | normalised response [8] [%] | normalised response [9] [%] | normalised response [10] [%] | normalised response [11] [%] | normalised response [12] [%] | normalised response [13] [%] | normalised response [14] [%] | normalised response [15] [%] | normalised response [16] [%] | normalised response [17] [%] | normalised response [18] [%] | normalised response [19] [%] | normalised viability [20] [%] | normalised viability [21] [%] | normalised viability [22] [%] | normalised viability [23] [%] | normalised viability [24] [%] | normalised viability [25] [%] | normalised viability [26] [%] | normalised viability [27] [%] | normalised viability [28] [%] | normalised viability [29] [%] | normalised viability [30] [%] | normalised viability [31] [%] | normalised viability [32] [%] | normalised viability [33] [%] | normalised viability [34] [%] | normalised viability [35] [%] | normalised viability [36] [%] | normalised viability [37] [%]
1 | N.N.[Cl][Pt][Cl] [Cisplatin] (1 nM) | 101 | 98.7 | 101 | 90.5 | 74.7 | 94.9 | 94.2 | 90.8 | 102 | 101 | 101 | 101 | 95.4 | 100 | 96.7 | 99.3 | 94.9 | 99.4 | 98.7 | 109 | 92 | 85.1 | 118 | 113 | 92.1 | 107 | 98.2 | 96.4 | 90.5 | 106 | 121 | 103 | 105 | 111 | 98.2 | 93.7 | 100
2 | Oc1nc(-c2ccc(C(F)(F)F)cc2)nc2c1CSCC2 [XAV-939] (1 nM) | 99.7 | 95.8 | 97.1 | 92.4 | 97.6 | 104 | 104 | 100 | 95.8 | 97.2 | 98.9 | 97.1 | 101 | 101 | 107 | 97.6 | 99.1 | 102 | 99.2 | 84.9 | 99.4 | 97.7 | 101 | 102 | 93.8 | 119 | 97.6 | 141 | 84 | 97.3 | 89.6 | 100 | 119 | 106 | 104 | 107 | 99.3
3 | Cc1ccc(C(=O)N(CCCN)[C@@H](c2oc3cc(Cl)ccc3c(=O)c2Cc2ccccc2)C(C)C)cc1 (0.1 nM) | 97.8 | 99.1 | 100 | 101 | 98.9 | 96 | 96 | 96.8 | 101 | 101 | 100 | 102 | 90.2 | 98.7 | 106 | 100 | 89.2 | 93.2 | 89 | 68.8 | 100 | 90.3 | 111 | 103 | 86.1 | 95.9 | 101 | 108 | 93 | 126 | 135 | 90.4 | 111 | 101 | 97.3 | 105 | 105
4 | C=C(c1ccc(C(=O)O)cc1)c1cc2c(cc1C)C(C)(C)CCC2(C)C [Bexarotene] (1 nM) | 103 | 103 | 99.6 | 107 | 105 | 99.7 | 99.6 | 99.7 | 98.9 | 100 | 102 | 93.2 | 99.8 | 107 | 89.5 | 111 | 109 | 97.5 | 102 | 81.1 | 88.7 | 115 | 105 | 94.1 | 102 | 82.5 | 110 | 101 | 108 | 84.7 | 111 | 86.1 | 82.5 | 83.5 | 105 | 99.6 | 94.8
